ChEMBL document CHEMBL1154255 (2009)
Converted amounts (≈) assume the structure as drawn.

What was measured:
Format in all cases: functional
BXPC-3 = experiment: Growth inhibition of human BxPC3 cells after 48 hrs by sulforhodamine B assay; conditions: BXPC-3, 48 h
MCF7 = experiment: Growth inhibition of human MCF7 cells after 48 hrs by sulforhodamine B assay; conditions: MCF7, 48 h
SF-268 = experiment: Growth inhibition of human SF268 cells after 48 hrs by sulforhodamine B assay; conditions: SF-268, 48 h
NCI-H460 = experiment: Growth inhibition of human NCI-H460 cells after 48 hrs by sulforhodamine B assay; conditions: NCI-H460, 48 h
KM-20L2 = experiment: Growth inhibition of human KM20L2 cells after 48 hrs by sulforhodamine B assay; conditions: KM-20L2, 48 h
DU-145 = experiment: Growth inhibition of human DU145 cells after 48 hrs by sulforhodamine B assay; conditions: DU-145, 48 h

Compound | GI50 (BXPC-3) [mg/L] | GI50 (MCF7) [mg/L] | GI50 (SF-268) [mg/L] | GI50 (NCI-H460) [mg/L] | GI50 (KM-20L2) [mg/L] | GI50 (DU-145) [mg/L]
COc1cc(/C=C/c2ccc(OC)c(O)c2O)cc(OC)c1O | > 10 | 5.5 (≈ 17.3 µM) | > 10 | > 10 | > 10 | > 10
COc1cc(/C=C/c2ccc(OC)c(OP(=O)([O-])[O-])c2OP(=O)([O-])[O-])cc(OC)c1OP(=O)([O-])[O-].[Na+].[Na+].[Na+].[Na+].[Na+].[Na+] | > 10 | > 10 | > 10 | > 10 | > 10 | > 10
COc1ccc(/C=C/c2cc(OC)c(O)c(OC)c2)cc1O | 5 (≈ 16.5 µM) |  |  | 4.9 (≈ 16.2 µM) |  | 6.3 (≈ 20.8 µM)
COc1ccc(/C=C\c2cc(OC)cc(OC)c2)cc1 [8Z-3,4',5-TRIMETHOXYSTILBENE] | 0.0034 (≈ 0.0126 µM) |  | 0.0044 (≈ 0.0163 µM) | 0.0028 (≈ 0.0104 µM) |  | 0.0054 (≈ 0.02 µM)
Oc1ccc(/C=C\c2cc(O)cc(O)c2)cc1 [CIS-RESVERATROL] |  |  | 5 (≈ 21.9 µM) |  | 22 (≈ 96.4 µM) | 
COc1ccc(/C=C\c2cc(OC)c(OC)c(OC)c2)cc1O [COMBRETASTATIN A4] | 0.39 (≈ 1.23 µM) |  | > 0.01 | 0.0006 (≈ 0.0019 µM) | 0.34 (≈ 1.07 µM) | 0.0008 (≈ 0.00253 µM)
COc1ccc(/C=C/c2cc(OC)c(OC)c(OC)c2)cc1O [E-COMBRETASTATIN A-4] | 3.9 (≈ 12.3 µM) |  |  | 0.038 (≈ 0.12 µM) |  | 0.037 (≈ 0.117 µM)
COc1ccc(/C=C/c2cc(OC)cc(OC)c2)cc1 [TRISMETHOXYRESVERATROL] | 0.35 (≈ 1.29 µM) |  | 0.56 (≈ 2.07 µM) | 0.62 (≈ 2.29 µM) |  | 1.5 (≈ 5.55 µM)
